One assay relates to lipoxygenase. The conditions noted are these: background art; cited from earlier work.
The next assay deals with cyclooxygenase. The conditions noted are these: background art; cited from earlier work.
The next assay addresses T1, 5-lipoxygenase (Cavia porcellus, UniProt A0A286X958).
T1 construct: 105,000×g for 60 min to obtain the cytosol fraction; endogenous in cells; host or cells: casein-elicited peritoneal polymorphonuclear leukocytes of male Hartley guinea pigs, 105,000×g cytosol fraction
T1 sequence (A0A286X958 1-674): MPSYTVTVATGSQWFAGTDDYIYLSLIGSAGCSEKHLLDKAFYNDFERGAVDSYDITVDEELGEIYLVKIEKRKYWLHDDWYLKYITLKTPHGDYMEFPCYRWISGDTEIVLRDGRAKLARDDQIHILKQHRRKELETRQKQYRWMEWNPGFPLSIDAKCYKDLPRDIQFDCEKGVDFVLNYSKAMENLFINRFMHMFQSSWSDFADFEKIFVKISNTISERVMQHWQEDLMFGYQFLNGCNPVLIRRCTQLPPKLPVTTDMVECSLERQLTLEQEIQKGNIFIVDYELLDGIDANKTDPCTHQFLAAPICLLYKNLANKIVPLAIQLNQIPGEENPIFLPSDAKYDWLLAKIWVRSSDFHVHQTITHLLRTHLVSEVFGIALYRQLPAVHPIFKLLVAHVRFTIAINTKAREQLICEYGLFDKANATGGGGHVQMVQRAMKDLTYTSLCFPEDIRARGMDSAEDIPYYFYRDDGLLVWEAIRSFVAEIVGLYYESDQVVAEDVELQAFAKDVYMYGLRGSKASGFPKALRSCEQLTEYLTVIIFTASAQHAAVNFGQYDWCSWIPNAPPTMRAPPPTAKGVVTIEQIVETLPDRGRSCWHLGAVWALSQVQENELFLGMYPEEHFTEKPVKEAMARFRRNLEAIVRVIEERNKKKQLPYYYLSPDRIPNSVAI
Kind of assay: Assay of 5-lipoxygenase (PMNL cytosol fraction, 5-HETE formation). It counts as biochemical, guinea pig (male Hartley strain). The following applies: 3 min pre-incubation, then [1-14C]arachidonic acid 5 min, 37° C., 1% DMSO, 5-HETE counted. As for the experimental part: Assay of 5-lipoxygenase […] Male Hartley strain guinea pigs weighing 580~740 g received intraperitoneal injection of 2% casein in saline (5 ml/100 g body weight). After 16~18 hr, the guinea pigs were sacrificed by bleeding from the carotid artery. Then 50 ml of Dulbecco's phosphate-buffered saline (PBS(-)) containing 5 units/ml of heparin were injected into the peritoneal cavity and peritoneal exudate was collected. The exudate was combined and filtered through 4 layers of cheese cloth, followed by centrifugation at 1,000 rpm for 10 min. Cell pellets were suspended in small amounts of PBS(-) and treated 3 volumes of 0.2% NaCl to lyse contamination red blood cells. The cells (80% or more PMNL as identified by Wright-Giemsa stain) were washed twice with buffer A (130 mM NaCl, 25 mM phosphate, pH 7.4, 1 mM EDTA). The washed cells (1×10^8 cells/ml) were resuspended in 50 mM phosphate (pH 7.4) containing 1 mM EDTA and 0.1% gelatin, sonicated and centrifuged at 10,000×g for 20 min. The supernatant solution was further centrifuged at 105,000×g for 60 min to obtain the cytosol fraction. Enzyme assays Test compounds were dissolved in dimethyl sulfoxide (DMSO), and the final concentration of DMSO was kept at 1% in each experiment. […] Each reaction was terminated by precipitating the proteins with 1 ml acetone and added 0.5 ml ice-cold saline. The pH was adjusted to about 3 with 150 μl 2N formic acid. The mixture was extracted twice with 2 ml chloroform. […] Radioactive zone of 5-HETE [5(S)-hydroxy-6,8,11,14-eicosatetraenoic acid] was detected by autoradiography, scraped from the TLC plates, and counted by a liquid scintillation counter. IC50 (50% Inhibition Concentration) value indicates the concentration to decrease the enzymatic product by 50% as compared to that of vehicle-treated control.

The next assay concerns the target T2, platelet cyclooxygenase (Oryctolagus cuniculus, UniProt O97554).
T2 construct: 1 ml of intact washed platelet suspensions were pre-incubated with test compounds; endogenous in cells; host or cells: intact washed platelets of male New Zealand White rabbits
T2 sequence (O97554 31-606): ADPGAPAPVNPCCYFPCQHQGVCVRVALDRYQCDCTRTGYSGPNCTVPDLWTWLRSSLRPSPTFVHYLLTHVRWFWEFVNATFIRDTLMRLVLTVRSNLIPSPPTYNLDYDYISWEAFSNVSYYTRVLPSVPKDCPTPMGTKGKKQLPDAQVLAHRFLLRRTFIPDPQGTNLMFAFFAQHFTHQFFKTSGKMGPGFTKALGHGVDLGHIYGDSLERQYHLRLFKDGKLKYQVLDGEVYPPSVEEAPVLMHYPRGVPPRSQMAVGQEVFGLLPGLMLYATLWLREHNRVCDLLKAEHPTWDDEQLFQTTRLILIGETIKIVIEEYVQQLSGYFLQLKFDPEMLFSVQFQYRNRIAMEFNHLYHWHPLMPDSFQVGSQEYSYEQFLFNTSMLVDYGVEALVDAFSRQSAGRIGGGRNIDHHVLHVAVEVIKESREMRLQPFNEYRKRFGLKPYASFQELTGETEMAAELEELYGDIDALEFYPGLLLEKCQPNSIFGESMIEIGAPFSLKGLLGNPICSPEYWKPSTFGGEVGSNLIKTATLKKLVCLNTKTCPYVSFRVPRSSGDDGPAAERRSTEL
As to the kind of experiment: Assay of platelet cyclooxygenase (intact washed platelets, TXB2 formation). The conditions noted are these: 3 min pre-incubation, then [1-14C]arachidonic acid 5 min, 37° C., TXB2 counted. Type of assay: cell-based, rabbit (male New Zealand White). As for the experimental part:
Assay of platelet cyclooxygenase
Preparation of washed platelet
Citrated blood (blood/3.8% sodium citrate=9:1 by volume) was obtained by heart-puncture from male New Zealand White rabbits weighing 3.21~4.75 kg and centrifuged at 1,000 rpm for 10 min. The platelet-rich plasma (the supernatant layer: PRP) was further centrifuged at 3,000 rpm for 10 min, and the resulting platelet was washed twice with buffer A (130 mM NaCl, 25 mM phosphate, pH 7.4, 1 mM EDTA). The washed platelets were resuspended in 50 mM phosphate (pH 7.4) containing 1 mM EDTA and adjusted 1×10^8 platelets/ml.
For the platelet cyclooxygenase assays, 1 ml of intact washed platelet suspensions were pre-incubated with test compounds (dissolved in DMSO) in the presence of 1 mM GSH at 37° C. for 3 min, and then the mixture was incubated with [1-^14 C]arachidonic acid (0.1 μCi) at 37° C. for 5 min. Each reaction was terminated and extracted by the addition of 3 ml of ethyl acetate/methanol/1M citric acid (30:4:1, v/v). The organic layer was evaporated under a N2 gas stream, redissolved in 30 μl of chloroform/methanol (2:1, v/v), and applied 20 μl to Silica gel TLC plates, and developed in the solvent system chloroform/methanol/acetic acid/H2 O (90:8:1:0.8, v/v). Radioactive zone of TXB2 (Thromboxane B2) was detected by autoradiography, scraped from the TLC plates, and counted by a liquid scintillation counter. IC50 value indicates the concentration to decrease the enzymatic product by 50% as compared to that of vehicle-treated control.

With `CC(C(=O)O)c1ccc2oc(-c3ccc(Cl)cc3)nc2c1` (stereo not drawn) [Benoxaprofen, 2-(4-chlorophenyl)-α-methyl-5-benzoxazoleacetic acid], in the assay on lipoxygenase, the “lipoxygenase inhibition (in words)” value is reported as “lipoxygenase-inhibiting actions”. Moreover, in the assay with cyclooxygenase, the “cyclooxygenase inhibition (in words)” value was “cyclooxygenase-inhibiting”. The IC50 on 5-lipoxygenase amounted to 24 µM.
With `COc1ccc2c(c1)c(CC(=O)OC(CN1CCN(CCCO)CC1)c1ccccc1)c(C)n2C(=O)c1ccc(Cl)cc1` (stereo not shown) [Example 7, 2-{4-(3-hydroxypropyl)-1-piperazinyl}-1-phenylethyl 1-(p-clorobenzoyl)-5-methoxy-2-methyl-3-indoylacetate dimaleate], the IC50 worked out at 20.4 µM against platelet cyclooxygenase and 1.6 µM against 5-lipoxygenase.
The matching figures for `COc1ccc2c(c1)c(CC(=O)OC(C)CN1CCN(CCCO)CC1)c(C)n2C(=O)c1ccc(Cl)cc1` (stereo not shown) [Example 8, 2-{4-(3-hydroxypropyl)-1-piperazinyl}-1-methylethyl 1-(p-chlorobenzoyl)-5-methoxy-2-methyl-3-indoylacetate dimaleate]: 30.6 µM and 6.9 µM.
For the molecule `COc1ccc2c(c1)c(CC(=O)OC(CN1CCN(CCO)CC1)c1ccccc1)c(C)n2C(=O)c1ccc(Cl)cc1` (stereo not shown) [Example 9, 2-{4-(2-hydroxyethyl)-1-piperazinyl}-1-phenylethyl 1-(p-chlorobenzoyl)-5-methoxy-2-methyl-3-indoylacetate dimaleate], the figures for the IC50 against platelet cyclooxygenase and at 5-lipoxygenase were 9.2 µM and 1.7 µM, respectively.
`COc1ccc2c(c1)c(CC(=O)OC(C)CN1CCN(CCCCCO)CC1)c(C)n2C(=O)c1ccc(Cl)cc1` (stereo not shown) [Example 10, 2-{4-(5-hydroxypentyl)-1-piperazinyl}-1-methylethyl 1-(p-chlorobenzoyl)-5-methoxy-2-methyl-3-indoylacetate dimaleate]: the results for the IC50 against platelet cyclooxygenase and against 5-lipoxygenase were 22.8 µM and 6.2 µM, respectively.
Take `COc1ccc2c(c1)c(CC(=O)OC(C)CN1CCN(CCCCCCO)CC1)c(C)n2C(=O)c1ccc(Cl)cc1` (stereo not shown) [Example 11, 2-{4-(6-hydroxyhexyl)-1-piperazinyl}-1-methylethyl 1-(p-chlorobenzoyl)-5-methoxy-2-methyl-3-indoylacetate dimaleate]: the IC50 was found to be 41.2 µM against platelet cyclooxygenase and 4.7 µM at 5-lipoxygenase.
Take `COc1ccc2c(c1)c(CC(=O)OC(CN1CCN(CCCCCCCCCCO)CC1)c1ccccc1)c(C)n2C(=O)c1ccc(Cl)cc1` (stereo not shown) [Example 12, 2-{4-(10-hydroxydecyl)-1-piperazinyl}-1-phenylethyl 1-(p-chlorobenzoyl)-5-methoxy-2-methyl-3-indoylacetate dimaleate]: 0.9 µM corresponded to half-maximal inhibition against 5-lipoxygenase (IC50).
On to `COc1ccc2c(c1)c(CC(=O)OC(C)(C)CN1CCN(CCCOC3CCCCO3)CC1)c(C)n2C(=O)c1ccc(Cl)cc1` (stereo not shown) [Example 13, 1-methyl-2-[4-{3-(2-tetrahydropyranyloxy)propyl}-1-piperazinyl]-2-methyl-2-propyl 1-(p-chlorobenzoyl)-5-methoxy-2-methyl-3-indoylacetate], for which the IC50 turned out to be 22.3 µM against platelet cyclooxygenase and 4.7 µM against 5-lipoxygenase.
Consider `COc1ccc2c(c1)c(CC(=O)O)c(C)n2C(=O)c1ccc(Cl)cc1` [Indomethacin], for which, in the assay on lipoxygenase, the “lipoxygenase inhibition (in words)” value is recorded as “does not inhibit lipoxygenase reaction”. Also, the “cyclooxygenase inhibition (in words)” value in the assay with cyclooxygenase is listed as “has cyclooxygenase-inhibiting action”. On 5-lipoxygenase, this molecule yielded a concentration for half-maximal inhibition (IC50) of 242 µM.

For orientation: IC50 means the point on the concentration scale where inhibition reaches its midpoint.

The values above are taken from US4696929A, “Derivative of piperazine having anti-allergic and anti-inflammatory action” (Taiho Pharmaceutical Company, Limited, priority 1984, dated 1987).
